From patent US8765695B2, “Use of ginsenoside RG1, its metabolites ginsenoside RH1 and/or PPT” (priority 2007, dated 2014)
Marks after values point to notes of the source that are not given here.

Experiments:
[1] = test system: sperms in tail of epididymis; assay: Gossypol aspermatogenesis model: quality of sperms from tail of epididymis by CASA; format: in vivo,  male mice; details: 14th day
male mice = assay: Test of sexual ethology: bestriding time and mating frequency of male mice with estral female mice; format: in vivo, Kunming mice
Procedure: Kunming male mice (age 10 weeks, weight body 32-36 g), Kunming female mice (age 10 weeks, weight body 30-34 g), as purchased from Laboratory Animal Center of Chinese Academy of Medical Sciences (with the number of certificate SCXK (Jing) 2005-0004), were placed in a clean grade animal house alternately in light and in darkness (12 h:12 h), while taking water and food freely. The test started after the mice had adapted to the environment in the animal house for 5 days. During the period of adapting to the environment, male mice and female mice were isolated from each other.
In order to correctly reflect the change of male mice in sexual function, we prepared estral female mice by ectomizing their ovaries and inducing them by application of external hormone. After anesthetized with chloral hydrate, female mice were subjected to the steps of ectomizing bilateral ovaries by dorsal approach, ligating uterine tube residue end, and suturing skin, followed by recuperating for one week. The induction by application of hormone was conducted by reference to the literature (Masayoshi Nomura, et al, Physiology & Behavior 91 (2007) 223-228), comprising the steps of subcutaneously injecting estradiol benzoate (30 μg per mouse, is) at 48 h prior to use, and subcutaneously injecting progesterone (500 μg per mouse, is) at 4 h prior to use, to thereby obtain estral female mice.
Estral female mice were put in a ratio of 2:1 to male mice inside a mating box in which male mice were placed. They were trained for consecutive 5 days, 12 min each day. When the mating reaction of male mice became stable, the mice were grouped with the consideration that the bestriding time in each group of mice was substantially the same, while discarding the mice that had relatively weak reaction and no reaction.
In darkness, ethological test was carried out in the rearing cage of male mice. Estral female mice and male mice were kept in a ratio of 2:1 inside the same box for 12 min, during which period the bestriding time and mating frequency of the male mice were observed.
All of the values were expressed by using mean value and standard error (M±SEM), the analytic method used was one-way analysis of variance (ANOVA), and the statistic results were expressed by double star method, i.e., *<0.05, **<0.01.

PDE5 = PDE5 (Homo sapiens, UniProt O76074); assay: Inhibition effect on PDE5 (cGMP degradation, radioimmune autograph technique); format: biochemical; details: read-out: Inhibition rate on PDE5
[2] = 5 mg/kg every day + gossypol 50 mg/kg every other day
[3] = 10 mg/kg every day + gossypol 50 mg/kg every other day
[4] = 5 mg/kg, 1st day, 12 min observation
[5] = 10 mg/kg, 1st day, 12 min observation

SMILES: CC(C)=CCC[C@](C)(O)[C@H]1CC[C@]2(C)[C@@H]1[C@H](O)C[C@@H]1[C@@]3(C)CC[C@H](O)C(C)(C)[C@@H]3[C@@H](O[C@@H]3O[C@H](CO)[C@@H](O)[C@H](O)[C@H]3O)C[C@]12C [Rh1, ginsenoside Rh1]
- Number of sperms [1, 2]: 142 ± 24** 10^6 · ml−1
- Motility of sperms (A + B) ([1]; 5 mg/kg every day + gossypol): 39 ± 8 %
- Viability rate of sperms ([1]; 5 mg/kg every day + gossypol): 56 ± 10 %
- Number of sperms [1, 3]: 143 ± 16** 10^6 · ml−1
- Motility of sperms (A + B) ([1]; 10 mg/kg every day + gossypol): 39 ± 6 %
- Viability rate of sperms ([1]; 10 mg/kg every day + gossypol): 52 ± 5 %
- bestriding time of mice (male mice; 5 mg/kg, 1st day): 2.8 ± 3.2 min
- mating frequency of mice (male mice; [4]): 11.3 ± 4.9
- bestriding time of mice (male mice; 5 mg/kg, 4th day): 3.5 ± 4.1 min
- mating frequency of mice (male mice; 5 mg/kg, 4th day): 13.9 ± 3.3
- bestriding time of mice (male mice; 5 mg/kg, 8th day): 4.1 ± 3.5 min
- mating frequency of mice (male mice; 5 mg/kg, 8th day): 23.5 ± 5.7
- bestriding time of mice (male mice; 5 mg/kg, 12th day): 6.2 ± 2.9 min
- mating frequency of mice (male mice; 5 mg/kg, 12th day): 29.4 ± 4.8
- bestriding time of mice (male mice; 5 mg/kg, 14th day): 8.6 ± 5.2 min
- mating frequency of mice (male mice; 5 mg/kg, 14th day): 33.6 ± 6.1
- bestriding time of mice (male mice; 5 mg/kg, 16th day): 8.7 ± 4.2* min
- mating frequency of mice (male mice; 5 mg/kg, 16th day): 32.2 ± 5.3
- bestriding time of mice (male mice; 5 mg/kg, 18th day): 8.9 ± 3.3* min
- mating frequency of mice (male mice; 5 mg/kg, 18th day): 39.8 ± 9.3*
- bestriding time of mice (male mice; 5 mg/kg, 20th day): 9.2 ± 3.4* min
- mating frequency of mice (male mice; 5 mg/kg, 20th day): 38.1 ± 8.5*
- bestriding time of mice (male mice; 10 mg/kg, 1st day): 3.6 ± 2.7 min
- mating frequency of mice (male mice; [5]): 9.7 ± 5.6
- bestriding time of mice (male mice; 10 mg/kg, 4th day): 3.9 ± 3.8 min
- mating frequency of mice (male mice; 10 mg/kg, 4th day): 14.3 ± 9.5
- bestriding time of mice (male mice; 10 mg/kg, 8th day): 4.0 ± 3.5 min
- mating frequency of mice (male mice; 10 mg/kg, 8th day): 25.7 ± 8.6
- bestriding time of mice (male mice; 10 mg/kg, 12th day): 6.3 ± 2.6 min
- mating frequency of mice (male mice; 10 mg/kg, 12th day): 28.4 ± 10.5
- bestriding time of mice (male mice; 10 mg/kg, 14th day): 8.4 ± 3.1 min
- mating frequency of mice (male mice; 10 mg/kg, 14th day): 32.2 ± 9.3
- bestriding time of mice (male mice; 10 mg/kg, 16th day): 8.9 ± 3.7* min
- mating frequency of mice (male mice; 10 mg/kg, 16th day): 34.1 ± 8.2
- bestriding time of mice (male mice; 10 mg/kg, 18th day): 9.1 ± 3.8* min
- mating frequency of mice (male mice; 10 mg/kg, 18th day): 36.4 ± 6.7*
- bestriding time of mice (male mice; 10 mg/kg, 20th day): 9.3 ± 3.8* min
- mating frequency of mice (male mice; 10 mg/kg, 20th day): 43.4 ± 7.3*

SMILES: CCCc1nn(C)c2c(=O)[nH]c(-c3cc(S(=O)(=O)N4CCN(C)CC4)ccc3OCC)nc12 [Sildenafil, reference compound]
- inhibition at 0.0025 µM (PDE5): 71.6%
- inhibition at 0.005 µM (PDE5): 14.6%
- inhibition at 0.01 µM (PDE5): 52.6%
- inhibition at 0.02 µM (PDE5): 83.3%
- inhibition at 0.04 µM (PDE5): 100%

SMILES: CC(C)=CCC[C@](C)(O)[C@H]1CC[C@]2(C)[C@@H]1[C@H](O)C[C@@H]1[C@@]3(C)CC[C@H](O)C(C)(C)[C@@H]3[C@@H](O)C[C@]12C [Ppt]
- Number of sperms [1, 2]: 141 ± 18** 10^6 · ml−1
- Motility of sperms (A + B) ([1]; 5 mg/kg every day + gossypol): 38 ± 11 %
- Viability rate of sperms ([1]; 5 mg/kg every day + gossypol): 55 ± 9 %
- Number of sperms [1, 3]: 178 ± 54** 10^6 · ml−1
- Motility of sperms (A + B) ([1]; 10 mg/kg every day + gossypol): 39 ± 9 %
- Viability rate of sperms ([1]; 10 mg/kg every day + gossypol): 56 ± 7 %
- bestriding time of mice (male mice; 5 mg/kg, 1st day): 3.3 ± 2.3 min
- mating frequency of mice (male mice; [4]): 11.4 ± 6.8
- bestriding time of mice (male mice; 5 mg/kg, 4th day): 3.9 ± 4.2 min
- mating frequency of mice (male mice; 5 mg/kg, 4th day): 15.4 ± 8.2
- bestriding time of mice (male mice; 5 mg/kg, 8th day): 4.5 ± 3.8 min
- mating frequency of mice (male mice; 5 mg/kg, 8th day): 27.4 ± 8.7
- bestriding time of mice (male mice; 5 mg/kg, 12th day): 6.8 ± 3.3 min
- mating frequency of mice (male mice; 5 mg/kg, 12th day): 28.2 ± 9.3
- bestriding time of mice (male mice; 5 mg/kg, 14th day): 7.9 ± 4.4 min
- mating frequency of mice (male mice; 5 mg/kg, 14th day): 29.5 ± 7.7
- bestriding time of mice (male mice; 5 mg/kg, 16th day): 8.3 ± 3.1* min
- mating frequency of mice (male mice; 5 mg/kg, 16th day): 33.5 ± 10.4
- bestriding time of mice (male mice; 5 mg/kg, 18th day): 9.2 ± 3.8* min
- mating frequency of mice (male mice; 5 mg/kg, 18th day): 39.2 ± 8.6*
- bestriding time of mice (male mice; 5 mg/kg, 20th day): 9.1 ± 3.5* min
- mating frequency of mice (male mice; 5 mg/kg, 20th day): 41.7 ± 7.4*
- bestriding time of mice (male mice; 10 mg/kg, 1st day): 2.9 ± 3.4 min
- mating frequency of mice (male mice; [5]): 13.4 ± 6.3
- bestriding time of mice (male mice; 10 mg/kg, 4th day): 3.3 ± 4.1 min
- mating frequency of mice (male mice; 10 mg/kg, 4th day): 15.4 ± 8.4
- bestriding time of mice (male mice; 10 mg/kg, 8th day): 5.1 ± 3.8 min
- mating frequency of mice (male mice; 10 mg/kg, 8th day): 22.8 ± 9.6
- bestriding time of mice (male mice; 10 mg/kg, 12th day): 7.2 ± 3.3 min
- mating frequency of mice (male mice; 10 mg/kg, 12th day): 31.6 ± 8.4
- bestriding time of mice (male mice; 10 mg/kg, 14th day): 8.4 ± 4.2 min
- mating frequency of mice (male mice; 10 mg/kg, 14th day): 33.7 ± 8.5
- bestriding time of mice (male mice; 10 mg/kg, 16th day): 9.4 ± 3.9* min
- mating frequency of mice (male mice; 10 mg/kg, 16th day): 35.3 ± 9.3
- bestriding time of mice (male mice; 10 mg/kg, 18th day): 9.4 ± 3.9* min
- mating frequency of mice (male mice; 10 mg/kg, 18th day): 37.2 ± 8.3*
- bestriding time of mice (male mice; 10 mg/kg, 20th day): 9.4 ± 3.1* min
- mating frequency of mice (male mice; 10 mg/kg, 20th day): 40.2 ± 7.3*
